The results in this text go back to patent US20160214956A1, “NOVEL SOLUBLE GUANYLATE CYCLASE ACTIVATORS AND THEIR USE” (GLAXOSMITHKLINE INTELLECTUAL PROPERTY DEVELOPMENT LIMITED, priority 2013, published 2016).

The target in this experiment is T1, human sGC (Homo sapiens, UniProt Q02153).
T1 sequence (Q02153 1-619): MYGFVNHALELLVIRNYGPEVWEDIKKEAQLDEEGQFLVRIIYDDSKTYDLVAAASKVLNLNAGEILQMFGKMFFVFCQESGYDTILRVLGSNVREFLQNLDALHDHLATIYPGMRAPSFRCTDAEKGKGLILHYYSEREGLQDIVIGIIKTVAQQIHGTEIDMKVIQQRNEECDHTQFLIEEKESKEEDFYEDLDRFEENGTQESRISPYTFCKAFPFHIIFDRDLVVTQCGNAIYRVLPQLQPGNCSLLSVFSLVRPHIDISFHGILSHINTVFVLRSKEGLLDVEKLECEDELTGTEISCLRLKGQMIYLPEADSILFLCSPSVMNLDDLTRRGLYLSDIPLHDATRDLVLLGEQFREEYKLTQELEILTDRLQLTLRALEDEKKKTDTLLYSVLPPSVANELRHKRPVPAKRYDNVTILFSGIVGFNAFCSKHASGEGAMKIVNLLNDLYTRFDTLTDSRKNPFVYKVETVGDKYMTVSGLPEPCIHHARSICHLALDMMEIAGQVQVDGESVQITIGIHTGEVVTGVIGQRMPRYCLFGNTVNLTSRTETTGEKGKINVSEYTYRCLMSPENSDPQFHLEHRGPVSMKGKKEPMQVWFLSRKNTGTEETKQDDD
T1 sequence (Q02108 1-690 partner): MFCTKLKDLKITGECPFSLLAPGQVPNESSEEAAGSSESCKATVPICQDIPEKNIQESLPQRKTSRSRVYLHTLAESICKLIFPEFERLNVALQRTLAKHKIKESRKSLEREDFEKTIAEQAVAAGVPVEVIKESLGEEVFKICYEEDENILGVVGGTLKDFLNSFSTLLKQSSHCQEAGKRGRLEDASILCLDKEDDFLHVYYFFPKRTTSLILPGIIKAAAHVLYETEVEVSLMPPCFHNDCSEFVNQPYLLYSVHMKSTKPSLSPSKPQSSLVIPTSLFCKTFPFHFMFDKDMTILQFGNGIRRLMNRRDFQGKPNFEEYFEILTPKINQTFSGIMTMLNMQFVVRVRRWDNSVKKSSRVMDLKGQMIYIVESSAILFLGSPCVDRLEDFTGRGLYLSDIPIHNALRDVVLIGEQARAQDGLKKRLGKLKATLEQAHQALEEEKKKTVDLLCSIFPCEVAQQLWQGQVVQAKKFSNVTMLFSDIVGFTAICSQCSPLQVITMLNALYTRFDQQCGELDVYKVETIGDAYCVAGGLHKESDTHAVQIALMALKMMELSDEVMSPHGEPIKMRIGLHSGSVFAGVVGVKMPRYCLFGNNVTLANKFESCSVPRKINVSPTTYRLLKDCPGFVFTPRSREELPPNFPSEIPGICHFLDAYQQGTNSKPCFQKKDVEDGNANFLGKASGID
The experiment in a line: sGC enzyme assay, fluorescence polarisation of labelled cGMP. It counts as biochemical. Conditions: human sGC 1 nM, FP assay; concentration able to increase by 5-fold basal cGMP. As for the experimental part: The activity of soluble guanylate cyclase (sGC) was tested in an assay based on measuring the fluorescent polarisation (FP) signal of fluorescently labelled cGMP. FP increased on interaction with an anti-cGMP antibody as the motility of the molecule was reduced. Newly produced cGMP displaced the interaction giving rise to a decrease in polarisation and FP signal which was equated to enzyme activity. Compounds were incubated with human sGC, anti-cGMP antibody, the GTP substrate and fluorescently labelled cGMP. After a period of one hour the assay was stopped with the addition of EDTA and after a further hour the assay was read.
Human sGC was thawed and resuspended in assay buffer (100 mM TRIS, 10 mM MgCl2, 0.2 mM Tween 20, pH7.4, containing 1:100 dilution of sheep anti-cGMP) to give final concentration of 1 nM in the well. A substrate solution was prepared containing GTP and 8-fluo-cGMP in de-ionized water to a final concentration of 25 μM and 50 nM respectively. Assay plates containing 5 μL of various test compounds and of a standard agonist (50 μM-50 nM) in 1% DMSO as 6 point, four fold dilutions across a 96 well plate were used in the assay. The plate also contained 6 wells of DMSO (1%) to produce high control and a cGMP standard curve (14 nM to 10 μM) to convert FP data to cGMP concentration. 25 μL of enzyme mix and 20 μl of substrate mix described above were added to each well of the plate. Samples were mixed on an orbital shaker and then incubated at room temperature for 1 hour. After this incubation period 5 μl of 0.5M EDTA was added to all wells and the plates were incubated for a further hour at room temperature prior to reading the FP signal in an appropriate reader. For data handling FP data were converted to cGMP concentrations and then fitted using ActivityBase software. The activity of a test compound was determined as the pEC500 value which is the concentration able to increase by 5-fold basal cGMP.
A general note: Fluorescence polarisation rises when a labelled molecule tumbles more slowly, as on binding a larger partner.

As for `COCCOc1ccc(COc2ccccc2-c2cccc(-n3ncc(C(=O)O)c3C(F)(F)F)n2)cc1` [Example 4, 1-(6-(2-((4-(2-methoxyethoxy)benzyl)oxy)phenyl)pyridin-2-yl)-5-(trifluoromethyl)-1H-pyrazole-4-carboxylic acid], the “sGC pEC500” value was 6.6.
Under `COCCCOc1ccc(COc2ccccc2-c2cccc(-n3ncc(C(=O)O)c3C(F)(F)F)n2)cc1` [Example 7, 1-(6-(2-((4-(3-methoxypropoxy)benzyl)oxy)phenyl)pyridin-2-yl)-5-(trifluoromethyl)-1H-pyrazole-4-carboxylic acid] stands 7.1; under `N#CCCCOc1ccc(COc2ccccc2-c2cccc(-n3ncc(C(=O)O)c3C(F)(F)F)n2)cc1` [Example 8, 1-(6-(2-((4-(3-cyanopropoxy)benzyl)oxy)phenyl)pyridin-2-yl)-5-(trifluoromethyl)-1H-pyrazole-4-carboxylic acid], 7.28; under `Cc1cc(OCCCC(=O)O)ccc1COc1ccccc1-c1cccc(-n2ncc(C(=O)O)c2C(F)(F)F)n1` [Example 12, 1-(6-(2-((4-(3-carboxypropoxy)-2-methylbenzyl)oxy)phenyl)pyridin-2-yl)-5-(trifluoromethyl)-1H-pyrazole-4-carboxylic acid], 6.59.
